As usually defined, the IC50 is the concentration that gives 50% inhibition. Low values mean greater potency in that assay, high ones weaker potency in that assay.

Structures are written as SMILES.

This is an account of results in patent publication US20230212144A1, “5-MEMBERED HETEROARYL DERIVATIVE CONTAINING AT LEAST ONE N, AND PHARMACEUTICAL COMPOSITION FOR PREVENTING OR TREATING MENTAL DISORDERS, CONTAINING SAME AS ACTIVE INGREDIENT” (DAEGU-GYEONGBUK MEDICAL INNOVATION FOUNDATION, priority 2020, published 2023).

Assay [1] concerns the target norepinephrine transporter (NET) (Homo sapiens, UniProt P23975). Description: Norepinephrine reuptake inhibition, [3H]-NE, cells transfected with NE transporter cDNA. As to conditions: for Triple reuptake inhibition (Ratio %) NET: compound 1 μM, relative to control without compound (100%), lower value = stronger inhibition.
Method: (§1) After removing the medium, each compound of Examples or Comparative Examples diluted to 1 μM in uptake buffer was added to a concentration of 200 μL/well and cultured at 37° C. for 15 minutes. 100 μL of uptake buffer containing 20-30 nM [3H]-DA was added and cultured at 37° C. for 5 minutes. The reaction solution was quickly removed and washed three times with 1 mL ice-cold uptake buffer. After dissolving the resultant in 1% SDS (0.5 mL), the degree of binding of radioisotope-labeled dopamine to the transporter was measured.
(§2) For norepinephrine(NE) and serotonin(5-HT), the degree of binding of radioisotope-labeled norepinephrine or serotonin to the transporter was measured in the same manner as above, except that cells transfected with NE or 5-HT transporter cDNA were used and [3H]-NE or [3H]-5-HT was used as a substrate.
(§3) In addition, when evaluating the reuptake inhibitory effect on dopamine, norepinephrine, and serotonin, the same method was performed without treating each compound of Examples or Comparative Examples as a control, the degree of binding of radioisotope-labeled dopamine, norepinephrine, and serotonin to the transporter was measured, and by using this as a reference (100%), the triple reuptake inhibitory effect was evaluated as a relative ratio (Ratio %). That is, in the control group, the binding of dopamine, norepinephrine, and serotonin to transporters is not inhibited, but when each compound of Examples is treated and thus the binding is inhibited, the Ratio % value decreases.
Assay [2] has as its target dopamine transporter (DAT) (Homo sapiens, UniProt Q01959). Description: Dopamine reuptake inhibition, [3H]-DA, HEK-293 cells transfected with dopamine transporter cDNA. As to conditions: for Triple reuptake inhibition (Ratio %) DAT: compound 1 μM, relative to control without compound (100%), lower value = stronger inhibition.
For assay [3], the target named is serotonin transporter (SERT) (Homo sapiens, UniProt P31645). Description: Serotonin reuptake inhibition, [3H]-5-HT, cells transfected with 5-HT transporter cDNA. As to conditions: for Triple reuptake inhibition (Ratio %) SERT: compound 1 μM, relative to control without compound (100%), lower value = stronger inhibition.
Sequence of serotonin transporter (SERT) (P31645 whole entry, species assumed): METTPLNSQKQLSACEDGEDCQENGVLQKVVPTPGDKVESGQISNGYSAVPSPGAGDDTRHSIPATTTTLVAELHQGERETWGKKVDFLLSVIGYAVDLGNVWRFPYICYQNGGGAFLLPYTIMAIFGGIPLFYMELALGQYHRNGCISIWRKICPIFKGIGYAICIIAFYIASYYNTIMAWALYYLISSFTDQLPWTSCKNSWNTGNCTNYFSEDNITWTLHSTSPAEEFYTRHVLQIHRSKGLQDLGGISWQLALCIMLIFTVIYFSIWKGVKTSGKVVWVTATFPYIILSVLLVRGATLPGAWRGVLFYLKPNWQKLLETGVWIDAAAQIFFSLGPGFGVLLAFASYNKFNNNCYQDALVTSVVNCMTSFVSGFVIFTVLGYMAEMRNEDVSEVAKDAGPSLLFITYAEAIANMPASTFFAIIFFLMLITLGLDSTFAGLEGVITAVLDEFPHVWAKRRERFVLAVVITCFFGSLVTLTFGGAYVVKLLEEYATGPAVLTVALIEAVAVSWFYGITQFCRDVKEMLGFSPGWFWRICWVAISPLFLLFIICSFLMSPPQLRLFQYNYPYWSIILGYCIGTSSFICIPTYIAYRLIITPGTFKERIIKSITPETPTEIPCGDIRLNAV
Method: as §1, §2, §3

Sequence of norepinephrine transporter (NET) (P23975 whole entry, species assumed): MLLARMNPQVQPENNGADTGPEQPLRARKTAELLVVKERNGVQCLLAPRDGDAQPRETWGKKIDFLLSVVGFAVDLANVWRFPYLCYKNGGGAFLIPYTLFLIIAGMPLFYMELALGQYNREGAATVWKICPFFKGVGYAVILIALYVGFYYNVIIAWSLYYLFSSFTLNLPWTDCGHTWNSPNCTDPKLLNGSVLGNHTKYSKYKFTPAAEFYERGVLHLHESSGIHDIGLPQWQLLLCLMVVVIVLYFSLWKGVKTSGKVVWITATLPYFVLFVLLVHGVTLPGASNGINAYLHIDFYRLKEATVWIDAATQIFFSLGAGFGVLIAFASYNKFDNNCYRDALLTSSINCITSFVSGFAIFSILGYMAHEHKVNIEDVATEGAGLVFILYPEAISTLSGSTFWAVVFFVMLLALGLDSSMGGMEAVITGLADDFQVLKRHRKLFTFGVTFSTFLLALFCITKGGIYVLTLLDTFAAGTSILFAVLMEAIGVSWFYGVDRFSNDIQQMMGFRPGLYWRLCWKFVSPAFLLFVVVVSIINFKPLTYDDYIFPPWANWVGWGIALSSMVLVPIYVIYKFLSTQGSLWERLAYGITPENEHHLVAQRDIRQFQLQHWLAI
Sequence of dopamine transporter (DAT) (Q01959 whole entry, species assumed): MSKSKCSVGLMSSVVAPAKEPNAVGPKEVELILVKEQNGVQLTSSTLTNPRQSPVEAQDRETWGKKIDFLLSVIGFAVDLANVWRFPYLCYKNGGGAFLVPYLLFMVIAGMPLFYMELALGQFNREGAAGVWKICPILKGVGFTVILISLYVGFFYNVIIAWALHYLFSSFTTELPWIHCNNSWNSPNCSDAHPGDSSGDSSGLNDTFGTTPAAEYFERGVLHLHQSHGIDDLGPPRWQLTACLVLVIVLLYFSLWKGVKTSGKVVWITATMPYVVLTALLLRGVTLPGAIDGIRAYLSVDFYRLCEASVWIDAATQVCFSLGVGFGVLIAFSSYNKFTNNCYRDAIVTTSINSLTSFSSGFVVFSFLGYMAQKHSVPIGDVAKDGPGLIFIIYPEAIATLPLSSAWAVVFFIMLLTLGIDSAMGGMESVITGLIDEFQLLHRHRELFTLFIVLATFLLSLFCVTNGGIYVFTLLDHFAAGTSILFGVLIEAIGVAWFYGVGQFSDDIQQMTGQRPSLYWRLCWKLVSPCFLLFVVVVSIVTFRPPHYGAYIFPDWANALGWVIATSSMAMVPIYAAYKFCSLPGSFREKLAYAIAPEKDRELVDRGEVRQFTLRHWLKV

In the case of `c1ccc(CC2CCN(Cc3nnc(-c4c[nH]c5ccccc45)[nH]3)CC2)cc1` [Example 22, 3-(5-((4-benzylpiperidin-1-yl)methyl)-4H-1,2,4-triazol-3-yl)-1H-indole], in assay [1], the IC50 was 644 nM and the “Triple reuptake inhibition (Ratio %) NET” value is 32.07%. Further, in assay [2], the IC50 was 187 nM and the “Triple reuptake inhibition (Ratio %) DAT” value came to 19.30%. For the same compound, in assay [3], inhibition was half-maximal at 945 nM (IC50) and the “Triple reuptake inhibition (Ratio %) SERT” value was 47.99%.

Take `FC(F)(F)c1ccc2[nH]c(-c3nnc(CN4CCC(Cc5ccccc5)CC4)[nH]3)cc2c1` [Example 23, 2-(5-((4-benzylpiperidin-1-yl)methyl)-4H-1,2,4-triazol-3-yl)-5-(trifluoromethyl)-1H-indole]: the “Triple reuptake inhibition (Ratio %) NET” value in assay [1] is listed as 90.00%. Further, the “Triple reuptake inhibition (Ratio %) DAT” value in assay [2] was 46.60%. In addition, in assay [3], the “Triple reuptake inhibition (Ratio %) SERT” value is listed as 125.38%.

In the case of `Clc1cccc2[nH]c(-c3nnc(CN4CCC(Cc5ccccc5)CC4)[nH]3)cc12` [Example 24, 2-(5-((4-benzylpiperidin-1-yl)methyl)-4H-1,2,4-triazol-3-yl)-4-chloro-1H-indole], the “Triple reuptake inhibition (Ratio %) NET” value in assay [1] was found to be 26.69%. Moreover, the “Triple reuptake inhibition (Ratio %) DAT” value in assay [2] is 6.56%. Moreover, the “Triple reuptake inhibition (Ratio %) SERT” value in assay [3] came out at 109.21%.

Take `c1ccc(CC2CCN(Cc3nnc(-c4cc5ccccc5o4)[nH]3)CC2)cc1` [Example 25, 1-((5-(benzofuran-2-yl)-4H-1,2,4-triazol-3-yl)methyl)-4-benzylpiperidine]: the “Triple reuptake inhibition (Ratio %) NET” value in assay [1] stood at 76.00%. Moreover, the “Triple reuptake inhibition (Ratio %) DAT” value in assay [2] worked out at 26.92%. In assay [3], the “Triple reuptake inhibition (Ratio %) SERT” value was determined as 73.17%.

Take `c1ccc(CC2CCN(Cc3nnc(-c4cc5ccccc5s4)[nH]3)CC2)cc1` [Example 26, 1-((5-(benzo[b]thiophen-2-yl)-4H-1,2,4-triazol-3-yl)methyl)-4-benzylpiperidine]: the “Triple reuptake inhibition (Ratio %) NET” value in assay [1] came to 53.01%. In assay [2], the “Triple reuptake inhibition (Ratio %) DAT” value is given as 26.92%. The “Triple reuptake inhibition (Ratio %) SERT” value in assay [3] was found to be 88.78%.

As to `c1ccc(CC2CCN(Cc3nnc(-c4ccc5c(c4)OCO5)[nH]3)CC2)cc1` [Example 27, 1-((5-(benzo[d][1,3]dioxol-5-yl)-4H-1,2,4-triazol-3-yl)methyl)-4-benzylpiperidine], in assay [1], half-maximal inhibition (IC50) was put at 1990 nM and the “Triple reuptake inhibition (Ratio %) NET” value was 53.55%. Also, in assay [2], the IC50 is 62 nM and the “Triple reuptake inhibition (Ratio %) DAT” value is 9.71%. Also, in assay [3], the IC50 came to 968 nM and the “Triple reuptake inhibition (Ratio %) SERT” value is recorded as 59.52%.

For the compound `O=C(O)c1ccc2[nH]c(-c3nnc(CN4CCC(Cc5ccccc5)CC4)[nH]3)cc2c1` [Example 28, 2-(5-((4-benzylpiperidin-1-yl)methyl)-4H-1,2,4-triazol-3-yl)-1H-indol-5-carboxylic acid], in assay [1], the “Triple reuptake inhibition (Ratio %) NET” value was 85.85%. The “Triple reuptake inhibition (Ratio %) DAT” value in assay [2] came out at 65.47%. The “Triple reuptake inhibition (Ratio %) SERT” value in assay [3] is 93.63%.

Consider `Fc1ccc2[nH]c(-c3nnc(CN4CCC(Cc5ccc(Cl)c(Cl)c5)CC4)[nH]3)cc2c1` [Example 29, 2-(5-((4-(3,4-dichlorobenzyl)piperidin-1-yl)methyl)-4H-1,2,4-triazol-3-yl)-5-fluoro-1H-indole], for which the “Triple reuptake inhibition (Ratio %) NET” value in assay [1] is recorded as 45.28%. In addition, the “Triple reuptake inhibition (Ratio %) DAT” value in assay [2] is on record as 36.13%. Further, in assay [3], the “Triple reuptake inhibition (Ratio %) SERT” value came out at 72.63%.

Consider `Cc1ccc2[nH]c(-c3nnc(CN4CCC(Cc5ccc(Cl)c(Cl)c5)CC4)[nH]3)cc2c1` [Example 30, 2-(5-((4-(3,4-dichlorobenzyl)piperidin-1-yl)methyl)-4H-1,2,4-triazol-3-yl)-5-methyl-1H-indole], for which the “Triple reuptake inhibition (Ratio %) NET” value in assay [1] came to 96.77%. Further, the “Triple reuptake inhibition (Ratio %) DAT” value in assay [2] is given as 72.11%. Also, in assay [3], the “Triple reuptake inhibition (Ratio %) SERT” value stood at 88.71%.

Take `COc1cc2cc(-c3nnc(CN4CCC(Cc5ccc(Cl)c(Cl)c5)CC4)[nH]3)[nH]c2cc1OC` [Example 31, 2-(5-((4-(3,4-dichlorobenzyl)piperidin-1-yl)methyl)-4H-1,2,4-triazol-3-yl)-5,6-dimethoxy-1H-indole]: in assay [1], the IC50 stood at 459 nM and the “Triple reuptake inhibition (Ratio %) NET” value came out at 32.54%. For the same compound, in assay [2], the IC50 came out at 204 nM and the “Triple reuptake inhibition (Ratio %) DAT” value worked out at 19.20%. Besides, in assay [3], the IC50 came out at 276 nM and the “Triple reuptake inhibition (Ratio %) SERT” value worked out at 32.68%.

With `Fc1ccc2[nH]c(-c3nnc(CN4CCC(c5c[nH]c6ccccc56)CC4)[nH]3)cc2c1` [Example 32, 2-(5-((4-(1H-indol-3-yl)piperidin-1-yl)methyl)-4H-1,2,4-triazol-3-yl)-5-fluoro-1H-indole], the “Triple reuptake inhibition (Ratio %) NET” value in assay [1] is given as 93.09%. Further, the “Triple reuptake inhibition (Ratio %) DAT” value in assay [2] was 44.81%. In addition, the “Triple reuptake inhibition (Ratio %) SERT” value in assay [3] is reported as 51.31%.

With `c1ccc(CC2CCN(Cc3nnc(-c4cc5ccccc5[nH]4)o3)CC2)cc1` [Example 33, 2-((4-benzylpiperidin-1-yl)methyl)-5-(1H-indol-2-yl)-1,3,4-oxadiazole], in assay [1], the “Triple reuptake inhibition (Ratio %) NET” value stood at 145.38%. Moreover, in assay [2], the “Triple reuptake inhibition (Ratio %) DAT” value worked out at 97.72%. Besides, the “Triple reuptake inhibition (Ratio %) SERT” value in assay [3] was 103.08%.

Consider `Clc1ccc(CC2CCN(Cc3nnc(-c4cc5ccccc5[nH]4)o3)CC2)cc1Cl` [Example 34, 2-((4-(3,4-dichlorobenzyl)piperidin-1-yl)methyl)-5-(1H-indol-2-yl)-1,3,4-oxadiazole], for which the “Triple reuptake inhibition (Ratio %) NET” value in assay [1] is 124.25%. The “Triple reuptake inhibition (Ratio %) DAT” value in assay [2] stood at 90.85%. In addition, in assay [3], the “Triple reuptake inhibition (Ratio %) SERT” value worked out at 94.18%.

Consider `Oc1cc2cc(-c3nnc(CN4CCC(Cc5ccccc5)CC4)[nH]3)[nH]c2cc1O` [Example 35, 2-(5-((4-benzylpiperidin-1-yl)methyl)-4H-1,2,4-triazol-3-yl)-1H-indol-5,6-diol], for which, in assay [1], the IC50 worked out at 427 nM and the “Triple reuptake inhibition (Ratio %) NET” value amounted to 56.53%. Besides, in assay [2], half-maximal inhibition (IC50) required 629 nM and the “Triple reuptake inhibition (Ratio %) DAT” value is on record as 35.65%. In assay [3], it took 300 nM to reach half-maximal inhibition (IC50) and the “Triple reuptake inhibition (Ratio %) SERT” value turned out to be 27.99%.

In the case of `COc1ccc2[nH]cc(-c3nnc(CN4CCC(Cc5ccccc5)CC4)[nH]3)c2c1` [Example 36, 3-(5-((4-benzylpiperidin-1-yl)methyl)-4H-1,2,4-triazol-3-yl)-5-methoxy-1H-indole], the “Triple reuptake inhibition (Ratio %) NET” value in assay [1] was found to be 85.40%. Also, the “Triple reuptake inhibition (Ratio %) DAT” value in assay [2] is on record as 69.78%. Also, the “Triple reuptake inhibition (Ratio %) SERT” value in assay [3] came to 41.52%.

On to `COc1cccc2c(-c3nnc(CN4CCC(Cc5ccccc5)CC4)[nH]3)c[nH]c12` [Example 37, 3-(5-((4-benzylpiperidin-1-yl)methyl)-4H-1,2,4-triazol-3-yl)-7-methoxy-1H-indole], for which, in assay [1], inhibition was half-maximal at 1570 nM (IC50) and the “Triple reuptake inhibition (Ratio %) NET” value is 79.91%. Further, in assay [2], it took 349 nM to reach half-maximal inhibition (IC50) and the “Triple reuptake inhibition (Ratio %) DAT” value is listed as 40.29%. In assay [3], it took 322 nM to reach half-maximal inhibition (IC50) and the “Triple reuptake inhibition (Ratio %) SERT” value turned out to be 27.71%.
